Laboratory results reported in patent US20260042731A1, “(2,4-DICHLOROPHENOXY)ACETIC ACID ANALOGS” (CORTEVA AGRISCIENCE LLC, priority 2022, published 2026).
Where “and” joins values, the source holds several entries; their conditions need not be identical. Identical values can stand only once. Like-named read-outs stand apart in the source and are kept apart here.

Tests used:
[1] = test system: Amaranthus rudis (AMATA), tall water hemp; experiment: Postemergence herbicide evaluation, growth of Amaranthus rudis (AMATA); assay type: in vivo; conditions: Amaranthus tuberculatus, post-emergence, read-out: Ave. AMATA
[2] = test system: Chenopodium album (CHEAL), common lambsquarters; experiment: Postemergence herbicide evaluation, growth of Chenopodium album (CHEAL); assay type: in vivo; conditions: Chenopodium album, post-emergence, read-out: Ave. CHEAL
[3] = Volatility of compounds measured by thermogravimetric analysis (TGA); assay type: physicochemical
[4] = test system: Abutilon theophrasti (ABUTH), velvetleaf; experiment: Postemergence herbicide evaluation, growth of Abutilon theophrasti (ABUTH); assay type: in vivo; conditions: Abutilon theophrasti, post-emergence, read-out: AVE. ABUTH
[5] = test system: weeds ABUTH, AMATA, AMBEL, CHEAL, ERICA; experiment: Postemergence herbicide evaluation, overall average % weed control across ABUTH, AMATA, AMBEL, CHEAL and ERICA; assay type: in vivo; conditions: post-emergence, read-out: Overall Ave % Weed Control
[6] = test system: Ambrosia artemisiifolia (AMBEL), common ragweed; experiment: Postemergence herbicide evaluation, growth of Ambrosia artemisiifolia (AMBEL); assay type: in vivo; conditions: Ambrosia artemisiifolia, post-emergence, read-out: AVE. AMBEL

Structure (SMILES) | pest or weed control at 280 g/ha ([1]; 168 h) [%] | pest or weed control at 280 g/ha ([1]; 336 h) [%] | pest or weed control at 560 g/ha ([1]; 336 h) [%] | pest or weed control at 280 g/ha ([1]; 504 h) [%] | pest or weed control at 560 g/ha ([1]; 504 h) [%] | pest or weed control at 280 g/ha ([2]; 168 h) [%] | pest or weed control at 560 g/ha ([2]; 168 h) [%] | pest or weed control at 280 g/ha ([2]; 336 h) [%] | pest or weed control at 560 g/ha ([2]; 336 h) [%] | pest or weed control at 280 g/ha ([2]; 504 h) [%] | pest or weed control at 560 g/ha ([2]; 504 h) [%] | TGA Data (rate of weight loss, volatility) [3] | pest or weed control at 280 g/ha ([4]; 504 h) [%] | pest or weed control at 560 g/ha ([4]; 504 h) [%] | pest or weed control at 280 g/ha ([5]; 168 h) [%] | pest or weed control at 560 g/ha ([5]; 168 h) [%] | pest or weed control at 280 g/ha ([5]; 504 h) [%] | pest or weed control at 560 g/ha ([5]; 504 h) [%] | pest or weed control at 280 g/ha ([6]; 504 h) [%] | pest or weed control at 560 g/ha ([6]; 504 h) [%] | other results
O=C(COc1ccc(Cl)cc1Cl)OCCCCCOC(=O)COc1ccc(Cl)cc1Cl [Compound B8] | 84 | 92.5 | 96.5 | 92.5 | 100 | 80 | 82.5 | 92.5 | 97 | 96 | 99.5 | 0.3521 µg/min and 0.38 µg/min | 97 | 99 | 74.3 | 79.8 | 96.8 | 99.7 | 100 | 100 | pest or weed control at 280 g/ha ([5]; 336 h): 90.4%; pest or weed control at 560 g/ha ([5]; 336 h): 95.9%; pest or weed control at 560 g/ha ([6]; 168 h): 72.5%; pest or weed control at 280 g/ha ([6]; 336 h): 90%
O=C(COc1ccc(Cl)cc1Cl)OCCOC(=O)COc1ccc(Cl)cc1Cl [Compound B9] | 72.5 | 91 | 90 | 70 | 82.5 | 82.5 | 77.5 | 94 | 95 | 97.5 | 92.5 | 0.1482 µg/min | 98.5 | 75 | 75 | 72.3 | 92.5 | 89.9 | 100 | 100 | pest or weed control at 560 g/ha ([1]; 168 h): 77.5%; pest or weed control at 280 g/ha ([4]; 168 h): 57.5%; pest or weed control at 560 g/ha ([4]; 168 h): 57.5%; pest or weed control at 280 g/ha ([4]; 336 h): 77.5%; pest or weed control at 560 g/ha ([4]; 336 h): 70%; pest or weed control at 280 g/ha ([5]; 336 h): 86.5%; pest or weed control at 560 g/ha ([5]; 336 h): 86.6%; pest or weed control at 280 g/ha ([6]; 168 h): 77.5%; pest or weed control at 560 g/ha ([6]; 168 h): 74%; pest or weed control at 280 g/ha ([6]; 336 h): 70%; pest or weed control at 560 g/ha ([6]; 336 h): 85%
O=C(COc1ccc(Cl)cc1Cl)OCCCOC(=O)COc1ccc(Cl)cc1Cl [Compound B10] | 70 | 77.5 | 80 | 67.5 | 55 | 77.5 | 72.5 | 75 | 90 | 88.5 | 85 | 0.02488 µg/min | 25 | 27.5 | 62 | 58 | 72.2 | 68 | 90 | 75 | pest or weed control at 560 g/ha ([1]; 168 h): 62.5%; pest or weed control at 280 g/ha ([4]; 168 h): 27.5%; pest or weed control at 560 g/ha ([4]; 168 h): 22.5%; pest or weed control at 280 g/ha ([4]; 336 h): 25%; pest or weed control at 560 g/ha ([4]; 336 h): 32.5%; pest or weed control at 280 g/ha ([5]; 336 h): 64.5%; pest or weed control at 560 g/ha ([5]; 336 h): 69.9%; pest or weed control at 280 g/ha ([6]; 168 h): 62.5%; pest or weed control at 560 g/ha ([6]; 168 h): 57.5%; pest or weed control at 280 g/ha ([6]; 336 h): 67.5%; pest or weed control at 560 g/ha ([6]; 336 h): 67.5%
O=C(COc1ccc(Cl)cc1Cl)OCCCCCCOC(=O)COc1ccc(Cl)cc1Cl [Compound B12] |  |  |  | 62.5 | 62.5 |  |  |  |  | 96.5 | 90 | 0.2274 µg/min | 55 | 65 |  |  | 82 | 82.9 | 100 | 100 | 
O=C(COc1ccc(Cl)cc1Cl)OCCOCCOCCOC(=O)COc1ccc(Cl)cc1Cl [Compound B13] | 67.5 | 95 | 87.5 | 65 | 67.5 | 80 | 82.5 | 96.5 | 98 | 98.5 | 95 | 0.2318 µg/min | 67.5 | 62.5 | 72 | 75.7 | 86 | 84.5 | 100 | 99 | pest or weed control at 560 g/ha ([1]; 168 h): 75%; pest or weed control at 280 g/ha ([4]; 168 h): 55%; pest or weed control at 560 g/ha ([4]; 168 h): 45%; pest or weed control at 280 g/ha ([4]; 336 h): 62.5%; pest or weed control at 560 g/ha ([4]; 336 h): 57.5%; pest or weed control at 280 g/ha ([5]; 336 h): 83.6%; pest or weed control at 560 g/ha ([5]; 336 h): 82.6%; pest or weed control at 280 g/ha ([6]; 168 h): 72.5%; pest or weed control at 560 g/ha ([6]; 168 h): 88.5%; pest or weed control at 280 g/ha ([6]; 336 h): 72.5%; pest or weed control at 560 g/ha ([6]; 336 h): 75%
